Data reported in PubChem BioAssay (NCI).
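Values below derive from 48-hour exposures of cells grown in 96-well plates, with endpoints linearly interpolated between the two concentrations bracketing the appropriate inhibition level. GI50: concentration for 50% inhibition of growth. At the TGI there is no net growth.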

Key:
Experiment in all cases: NCI tumour cell line growth inhibition, 48 h
[1] = test system: U251 CNS
[2] = test system: COLO 205 colon
[3] = test system: OVCAR-8 ovarian
[4] = test system: UACC-257 melanoma
[5] = test system: SF-268 CNS
[6] = test system: NCI-H460 lung
[7] = test system: HL-60(TB) leukemia
[8] = test system: OVCAR-4 ovarian
[9] = test system: SK-MEL-2 melanoma
[10] = test system: EKVX NSCLC
[11] = test system: DLD-1 colon
[12] = test system: NCI-H522 lung
[13] = test system: HOP-18 NSCLC
[14] = test system: KM20L2 colon
[15] = test system: A549 NSCLC
[16] = test system: SK-MEL-28 melanoma
[17] = test system: CCRF-CEM leukemia
[18] = test system: SNB-19 CNS
[19] = test system: SNB-75 CNS
[20] = test system: CAKI-1 renal
[21] = test system: RPMI-8226 leukemia
[22] = test system: HOP-92 NSCLC
[23] = test system: HCT-116 colon
[24] = test system: IGROV1 ovarian
[25] = test system: OVCAR-3 ovarian
[26] = test system: HCT-15 colon
[27] = test system: LOX IMVI melanoma
[28] = test system: UO-31 renal
[29] = test system: MALME-3M melanoma
[30] = test system: DMS 273 small cell lung
[31] = test system: LXFL 529 NSCLC
[32] = test system: NCI-H226 lung
[33] = test system: SK-MEL-5 melanoma
[34] = test system: SF-295 CNS
[35] = test system: HOP-62 NSCLC
[36] = test system: SF-539 CNS
[37] = test system: OVCAR-5 ovarian
[38] = test system: NCI-H23 lung
[39] = test system: UACC-62 melanoma
[40] = test system: MOLT-4 leukemia
[41] = test system: SN12C renal
[42] = test system: SK-OV-3 ovarian
[43] = test system: SW-620 colon
[44] = test system: K-562 leukemia
[45] = test system: 786-0 renal
[46] = test system: ACHN renal
[47] = test system: HT29 colon
[48] = test system: KM12 colon
[49] = test system: M14 melanoma
[50] = test system: HCC-2998 colon
[51] = test system: M19-MEL melanoma
[52] = test system: A498 renal
[53] = test system: T-47D breast
[54] = test system: HS 578T breast
[55] = test system: MDA-MB-435
[56] = test system: MDA-MB-231 breast
[57] = test system: TK-10 renal
[58] = test system: DU-145 prostate
[59] = test system: SR leukemia
[60] = test system: PC-3 prostate
[61] = test system: SNB-78 CNS
[62] = test system: MCF7 breast
[63] = test system: XF 498 CNS
[64] = test system: DMS 114 small cell lung
[65] = test system: RXF 393 renal

With CC(=O)[CH-]C(=O)c1ccccc1.CC(=O)[CH-]C(=O)c1ccccc1.CC[O-].O=C1c2ccccc2C(=O)c2c1ccc(O)c2[O-].[Ti+4] the TGI [1] was over 100 µM, the TGI [2] was over 100 µM and the TGI [3] was over 100 µM. The TGI [4] was over 100 µM, the TGI [5] was over 100 µM and the TGI [6] was over 100 µM. The GI50 [7] was 19.6 µM, the TGI [7] was 56.6 µM and the TGI [8] was over 100 µM. The TGI [9] was over 100 µM, the TGI [10] was 83.2 µM and the TGI [11] was over 100 µM. It also gave a TGI [12] of 60.3 µM, a GI50 [13] of 23.1 µM and a TGI [13] of 88.3 µM. The GI50 [14] was 80.5 µM, the TGI [14] was over 100 µM and the TGI [15] was over 100 µM. For the same compound, the TGI [16] was over 100 µM, the TGI [17] was 56.6 µM and the TGI [18] was over 100 µM. The TGI [19] was over 100 µM, the TGI [20] was over 100 µM and the TGI [21] was 64.7 µM. For the same compound, the TGI [22] was over 100 µM, the TGI [23] was over 100 µM and the TGI [24] was over 100 µM. The TGI [25] was over 100 µM, the TGI [26] was over 100 µM and the TGI [27] was over 100 µM. It also gave a TGI [28] of 86.9 µM, a GI50 [29] of 25.6 µM and a TGI [29] of 61 µM. The TGI [30] was over 100 µM, the TGI [31] was over 100 µM and the TGI [32] was over 100 µM. It also gave a GI50 [33] of 30.4 µM, a TGI [33] of over 100 µM and a TGI [34] of over 100 µM. It also gave a TGI [35] of over 100 µM, a TGI [36] of over 100 µM and a TGI [37] of over 100 µM. The TGI [38] was over 100 µM, the TGI [39] was over 100 µM and the TGI [40] was 61.2 µM. It also gave a TGI [41] of over 100 µM, a GI50 [42] of 52.5 µM and a TGI [42] of over 100 µM. The TGI [43] was over 100 µM, the TGI [44] was over 100 µM and the TGI [45] was over 100 µM. For the same compound, the TGI [46] was over 100 µM, the TGI [47] was over 100 µM and the TGI [48] was over 100 µM. For the same compound, the TGI [49] was over 100 µM, the TGI [50] was over 100 µM and the TGI [51] was 80.2 µM. The TGI [52] was 83.5 µM.

Compound O=C(NC(=O)c1ccccc1[N+](=O)[O-])Nc1ccc(Oc2ncc(Cl)cn2)c(C(F)(F)F)c1 has a TGI [53] of over 89.1 µM, a TGI [1] of 10.8 µM and a TGI [2] of 0.109 µM. For the same compound, the TGI [54] was 2.45 µM, the TGI [3] was 9.71 µM and the TGI [55] was under 0.0123 µM. For the same compound, the TGI [4] was 41.8 µM, the TGI [5] was 38.4 µM and the TGI [6] was over 20.7 µM. For the same compound, the TGI [7] was 0.125 µM, the TGI [8] was 98.4 µM and the TGI [56] was 2.6 µM. The TGI [10] was over 100 µM, the TGI [11] was over 100 µM and the TGI [12] was 0.16 µM. The TGI [13] was over 100 µM, the TGI [14] was under 0.0231 µM and the TGI [57] was over 100 µM. For the same compound, the TGI [58] was over 100 µM, the TGI [15] was over 100 µM and the TGI [16] was over 4.64 µM. For the same compound, the TGI [17] was over 100 µM, the TGI [18] was 85.7 µM and the TGI [59] was over 100 µM. For the same compound, the TGI [21] was over 67.9 µM, the TGI [22] was 3.24 µM and the TGI [23] was 27.3 µM. The TGI [24] was over 100 µM, the TGI [25] was 0.838 µM and the TGI [26] was over 38.1 µM. The TGI [27] was 13.8 µM, the TGI [28] was 35.2 µM and the TGI [29] was over 100 µM. The TGI [30] was 0.669 µM, the TGI [60] was 0.0658 µM and the TGI [31] was over 43.9 µM. It also gave a TGI [61] of over 100 µM, a TGI [32] of 1.39 µM and a TGI [33] of 1.17 µM. For the same compound, the TGI [34] was over 4.64 µM, the TGI [35] was 66.4 µM and the TGI [36] was 0.489 µM. For the same compound, the TGI [37] was 80.4 µM, the TGI [38] was over 100 µM and the TGI [39] was over 100 µM. It also gave a TGI [40] of over 69.1 µM, a TGI [41] of 62.9 µM and a TGI [62] of over 52.2 µM. It also gave a TGI [63] of 1.62 µM, a TGI [42] of over 46.5 µM and a TGI [43] of over 11.9 µM. The TGI [44] was over 100 µM, the TGI [45] was 24.6 µM and the TGI [46] was 32.1 µM. The TGI [47] was 0.167 µM, the TGI [48] was 3.63 µM and the TGI [49] was 39.4 µM. It also gave a TGI [50] of 0.0775 µM, a TGI [51] of over 100 µM and a TGI [52] of 1.29 µM.

COc1ccc(C[C@H](N)C(=O)N2C[C@@H](CO)C[C@@H](n3ccc(=O)[nH]c3=O)C2)cc1 gave a TGI [1] of over 100 µM, a TGI [2] of over 100 µM and a TGI [3] of over 100 µM. It also gave a TGI [5] of over 100 µM, a TGI [6] of over 100 µM and a TGI [7] of over 100 µM. The TGI [8] was over 100 µM, the TGI [9] was over 100 µM and the TGI [10] was over 100 µM. It also gave a TGI [11] of over 100 µM, a TGI [12] of over 100 µM and a TGI [64] of over 100 µM. For the same compound, the TGI [65] was over 100 µM, the TGI [13] was over 100 µM and the TGI [14] was over 100 µM. It also gave a TGI [57] of over 100 µM, a TGI [15] of over 100 µM and a TGI [16] of over 100 µM. For the same compound, the TGI [17] was over 100 µM, the TGI [18] was over 100 µM and the TGI [59] was over 100 µM. For the same compound, the TGI [20] was over 100 µM, the TGI [21] was over 100 µM and the TGI [22] was over 100 µM. For the same compound, the TGI [23] was over 100 µM, the TGI [24] was over 100 µM and the TGI [25] was over 100 µM. The TGI [26] was over 100 µM, the TGI [27] was over 100 µM and the TGI [28] was over 100 µM. For the same compound, the TGI [29] was over 100 µM, the TGI [30] was over 100 µM and the TGI [31] was over 100 µM. For the same compound, the TGI [32] was over 100 µM, the TGI [33] was over 100 µM and the TGI [35] was over 100 µM. The TGI [36] was over 100 µM, the TGI [37] was over 100 µM and the TGI [38] was over 100 µM. It also gave a TGI [39] of over 100 µM, a TGI [40] of over 100 µM and a TGI [41] of over 100 µM. For the same compound, the TGI [42] was over 100 µM, the TGI [43] was over 100 µM and the TGI [44] was over 100 µM. For the same compound, the TGI [46] was over 100 µM, the TGI [47] was over 100 µM and the TGI [48] was over 100 µM. The TGI [49] was over 100 µM, the TGI [50] was over 100 µM and the TGI [51] was over 100 µM.
